Results as given in patent publication US4971967A, “Quinolinecarboxylic acid derivatives, antibacterial compositions and use” (Kanebo Ltd, priority 1989, dated 1990).
≈ marks a conversion by molar mass, not a printed value.

Tests used:
[1] = test system: Escherichia coli NIHJ JC-2; assay: Antibacterial activity (MIC), E. coli NIHJ JC-2; assay type: cell-based; conditions: NIHJJC2; Escherichia coli NIHJ JC-2, Gram -; read-out: Minimum inhibitory concentration (MIC)
Method in brief: (§1)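 Minimum inhibitory concentrations follow the procedure set by the Japan Society of Chemotherapy. Depending on the compound, the 5000 μg/ml stock is made in 0.1 N sodium hydroxide or sterilized water, and the working standard is 1000 μg/ml.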

[2] = test system: Micrococcus luteus ATCC 9341; assay: Antibacterial activity (MIC), Micrococcus luteus ATCC 9341; assay type: cell-based; conditions: ATCC9341; Micrococcus luteus ATCC 9341, Gram +; read-out: Minimum inhibitory concentration (MIC)
Method in brief: as §1

[3] = test system: Streptococcus faecalis IID 682; assay: Antibacterial activity (MIC), Streptococcus faecalis IID 682; assay type: cell-based; conditions: Enterococcus faecalis, IID682, Streptococcus faecalis IID 682, Gram +; read-out: Minimum inhibitory concentration (MIC)
Method in brief: as §1

[4] = test system: Staphylococcus aureus IID 803; assay: Effect on treatment of general infectious disease, S. aureus IID 803 (Experiment 4); assay type: in vivo, ddY male mice infected with Staphylococcus aureus; conditions: IID803, 168 h, oral, 1 h after i.p. infection, 2.1×10^7 CFU/mouse, survival after one week
Protocol: (§2) The test microorganisms were subjected to standing culture in Trypto-Soya Agar "Nissui" (made by Nissui Seiyaku K.K., Japan) at 37° C. for 16 to 18 hours. The culture was then diluted with PBS (Dulbecco's phosphate buffered saline) and mixed with an equivalent amount of 10% (w/v) Mucin (BACTO MUCIN BACTERIOLOGICAL, made by Difco Co.) to prepare a microorganism solution. The thus prepared microorganism solution (0.5 ml each) was intraperitoneally inoculated to ddY male mice (5 weeks age, weighing 25-28 g, 5 mice in each group), to infect the animals. One hour after the infection, the compound (A) or (J) of the present invention or the known compound (X) suspended in 1% (w/v) aqueous gum arabic or the known compound (Y) dissolved in sterilized distilled water was orally adiministered to mice.
(§3) The mice were daily observed for one week, and from the survival number of mice after one week, the 50% effective dose (ED50) was calculated by Weil method.
Staphylococcus aureus IID 803 (2.1×10^7 CFU/mouse)
(§4) The procedure of Experiment 3 was repeated except that ddY male mice weighing 24 to 28 g were employed.

[5] = test system: Staphylococcus aureus FDA 209P JC-1; assay: Antibacterial activity (MIC), S. aureus FDA 209P JC-1; assay type: cell-based; conditions: FDA209P; Staphylococcus aureus FDA 209P JC-1, Gram +; read-out: Minimum inhibitory concentration (MIC)
Method in brief: as §1

[6] = test system: Klebsiella pneumoniae PCI-602; assay: Antibacterial activity (MIC), Klebsiella pneumoniae PCI-602; assay type: cell-based; conditions: PCI602; Klebsiella pneumoniae PCI-602, Gram -; read-out: Minimum inhibitory concentration (MIC)
Method in brief: as §1

[7] = test system: Morganella morganii IFO 3848; assay: Antibacterial activity (MIC), Morganella morganii IFO 3848; assay type: cell-based; conditions: Morganella morganii, IFO3848, Morganella morganii IFO 3848, Gram -; read-out: Minimum inhibitory concentration (MIC)
Method in brief: as §1

infection = assay: Protective effects against infection (Experiments 3 and 4); assay type: in vivo, ddY male mice; conditions: result in words
Protocol: as §2, §3, §4

[8] = test system: Proteus mirabilis IFO 3849; assay: Antibacterial activity (MIC), Proteus mirabilis IFO 3849; assay type: cell-based; conditions: IFO3849; Proteus mirabilis IFO 3849, Gram -; read-out: Minimum inhibitory concentration (MIC)
Method in brief: as §1

[9] = test system: Pseudomonas aeruginosa E-2; assay: Antibacterial activity (MIC), P. aeruginosa E-2; assay type: cell-based; conditions: E2; Pseudomonas aeruginosa E-2, Gram -; read-out: Minimum inhibitory concentration (MIC)
Method in brief: as §1

[10] = test system: Serratia marcescens IAM 1184; assay: Antibacterial activity (MIC), Serratia marcescens IAM 1184; assay type: cell-based; conditions: Serratia marcescens, IAM1184, Serratia marcescens IAM 1184, Gram -; read-out: Minimum inhibitory concentration (MIC)
Method in brief: as §1

[11] = test system: Staphylococcus aureus IID 803; assay: Antibacterial activity (MIC), S. aureus IID 803; assay type: cell-based; conditions: IID803; Staphylococcus aureus IID 803, Gram +; read-out: Minimum inhibitory concentration (MIC)
Method in brief: as §1

Shigella sonnei EW-33 = assay: Antibacterial activity (MIC), Shigella sonnei EW-33; assay type: cell-based; conditions: Shigella sonnei, EW33, Shigella sonnei EW-33, Gram -; read-out: Minimum inhibitory concentration (MIC)
Method in brief: as §1

[12] = test system: Enterobacter aerogenes ATCC 13048; assay: Antibacterial activity (MIC), Enterobacter aerogenes ATCC 13048; assay type: cell-based; conditions: Klebsiella aerogenes, ATCC13048; Enterobacter aerogenes ATCC 13048, Gram -; read-out: Minimum inhibitory concentration (MIC)
Method in brief: as §1

[13] = Low toxicity (Experiments 5 and 6); assay type: in vivo, ddY male mice; conditions: result in words
Protocol: The compound (A) or (J) of the present invention was suspended in 1% (w/v) aqueous gum arabic to prepare a suspension in concentration of 100 mg/ml. The suspension was orally administered to ddY male mice (5 weeks age, weighing 20 to 25 g, 5 mice in each group), which had been fasted for 18 hours, at a rate of 2000 mg/kg body weight of the compound (A) or (J).
(§5) The compound (O) or (P) of the present invention was suspended in sterilized distilled water to prepare a suspension. The suspension was orally adminstered to ddY male mice (5 weeks age, weighing 20 to 25 g, 5 mice in each group), which had been fasted for 18 hours.

[14] = Acute toxicity (LD50) (Experiment 6); conditions: mouse, in vivo; oral, mice fasted 18 hours, observed for a week
Protocol: as §5

Escherichia coli KC-14 = assay: Antibacterial activity (MIC), E. coli KC-14; assay type: cell-based; conditions: KC14; Escherichia coli KC-14, Gram -; read-out: Minimum inhibitory concentration (MIC)
Method in brief: as §1

[15] = test system: Pseudomonas aeruginosa E-2; assay: Effect on treatment of general infectious disease, P. aeruginosa E-2 (Experiment 4); assay type: in vivo, ddY male mice infected with Pseudomonas aeruginosa; conditions: E2, 168 h, oral, 1 h after i.p. infection, 3.4×10^4 CFU/mouse, survival after one week
Protocol: as §2, §3
Pseudomonas aeruginosa E-2 (3.4×10^4 CFU/mouse)
as §4

[16] = test system: Pseudomonas aeruginosa NCTC 10490; assay: Antibacterial activity (MIC), P. aeruginosa NCTC 10490; assay type: cell-based; conditions: Pseudomonas aeruginosa, NCTC10490, Pseudomonas aeruginosa NCTC 10490, Gram -; read-out: Minimum inhibitory concentration (MIC)
Method in brief: as §1

Proteus vulgaris OX-19 = assay: Antibacterial activity (MIC), Proteus vulgaris OX-19; assay type: cell-based; conditions: OX19; Proteus vulgaris OX-19, Gram -; read-out: Minimum inhibitory concentration (MIC)
Method in brief: as §1

[17] = test system: Bacillus subtilis ATCC 6633; assay: Antibacterial activity (MIC), Bacillus subtilis ATCC 6633; assay type: cell-based; conditions: Bacillus subtilis, ATCC6633, Bacillus subtilis ATCC 6633, Gram +; read-out: Minimum inhibitory concentration (MIC)
Method in brief: as §1

[18] = test system: Citrobacter freundii NIHJ 10018-68; assay: Antibacterial activity (MIC), Citrobacter freundii NIHJ 10018-68; assay type: cell-based; conditions: Citrobacter freundii, NIHJ10018, Citrobacter freundii NIHJ 10018-68, Gram -; read-out: Minimum inhibitory concentration (MIC)
Method in brief: as §1

[19] = test system: Acinetobacter calcoaceticus AC 54; assay: Antibacterial activity (MIC), Acinetobacter calcoaceticus AC 54; assay type: cell-based; conditions: AC54; Acinetobacter calcoaceticus AC 54, Gram -; read-out: Minimum inhibitory concentration (MIC)
Method in brief: as §1

[20] = test system: Pseudomonas aeruginosa IFO 3445; assay: Antibacterial activity (MIC), P. aeruginosa IFO 3445; assay type: cell-based; conditions: Pseudomonas aeruginosa, IFO3445, Pseudomonas aeruginosa IFO 3445, Gram -; read-out: Minimum inhibitory concentration (MIC)
Method in brief: as §1

[21] = test system: Salmonella typhimurium IID 971; assay: Antibacterial activity (MIC), Salmonella typhimurium IID 971; assay type: cell-based; conditions: Salmonella enterica; Salmonella typhimurium IID 971, Gram -; read-out: Minimum inhibitory concentration (MIC)
Method in brief: as §1

Enterobacter cloacae 963 = assay: Antibacterial activity (MIC), Enterobacter cloacae 963; assay type: cell-based; conditions: Enterobacter cloacae, 963, Enterobacter cloacae 963, Gram -; read-out: Minimum inhibitory concentration (MIC)
Method in brief: as §1

[22] = test system: Staphylococcus epidermidis IAM-1296; assay: Antibacterial activity (MIC), S. epidermidis IAM-1296; assay type: cell-based; conditions: Staphylococcus epidermidis, IAM1296, Staphylococcus epidermidis IAM-1296, Gram +; read-out: Minimum inhibitory concentration (MIC)
Method in brief: as §1

SMILES | MIC [1] | MIC [2] | MIC [3] | ED50 [4] | MIC [5] | MIC [6] | MIC [7] | protective effects against infection (infection) | MIC [8] | MIC [9] | MIC [10] | MIC [11] | MIC (Shigella sonnei EW-33) | MIC [12] | toxicity [13] | LD50 at 168 h [14] | MIC (Escherichia coli KC-14) | ED50 [15] | MIC [16] | MIC (Proteus vulgaris OX-19) | also measured
CC1CN(c2c(F)cc3c(=O)c(C(=O)O)c4scc5n4c3c2N(C)C5)CCN1C (stereo not drawn) [Compound (O), 9,1-(Methylimino)methano-7-fluoro-8-(3,4-dimethyl-1-piperazinyl)-5-oxo-5H-thiazolo[3,2-a]-quinoline-4-carboxylic acid] | 0.05 µg/mL (≈ 0.12 µM) | 0.39 µg/mL (≈ 0.936 µM) | 0.1 µg/mL (≈ 0.24 µM) | 2.8 mg/kg | 0.025 µg/mL (≈ 0.06 µM) | 0.006 µg/mL (≈ 0.0144 µM) | 0.2 µg/mL (≈ 0.48 µM) | excellent protective effects against infection | 0.39 µg/mL (≈ 0.936 µM) | 0.78 µg/mL (≈ 1.87 µM) | 0.39 µg/mL (≈ 0.936 µM) | 0.025 µg/mL (≈ 0.06 µM) | 0.05 µg/mL (≈ 0.12 µM) | 0.1 µg/mL (≈ 0.24 µM) | low toxicity | 1410 mg/kg | 0.05 µg/mL (≈ 0.12 µM) | 9.4 mg/kg | 0.78 µg/mL (≈ 1.87 µM) | 0.025 µg/mL (≈ 0.06 µM) | MIC [17]: 0.0125 µg/mL (≈ 0.03 µM); MIC [18]: 0.39 µg/mL (≈ 0.936 µM); MIC [19]: 0.025 µg/mL (≈ 0.06 µM); MIC [20]: 1.56 µg/mL (≈ 3.75 µM); MIC [21]: 0.2 µg/mL (≈ 0.48 µM); MIC (Enterobacter cloacae 963): 0.1 µg/mL (≈ 0.24 µM); MIC [22]: 0.05 µg/mL (≈ 0.12 µM)
CC1CN(c2c(F)cc3c(=O)c(C(=O)O)c4scc5n4c3c2N(C)C5)CC(C)N1C (stereo not drawn) [Compound (P), 9,1-(Methylimino)methano-7-fluoro-8-(3,4,5-trimethyl-1-piperazinyl)-5-oxo-5H-thiazolo[3,2-a]quinoline-4-carboxylic acid] | 0.1 µg/mL (≈ 0.232 µM) | 0.39 µg/mL (≈ 0.906 µM) | 0.2 µg/mL (≈ 0.465 µM) | 1.9 mg/kg | 0.025 µg/mL (≈ 0.0581 µM) | 0.006 µg/mL (≈ 0.0139 µM) | 0.39 µg/mL (≈ 0.906 µM) | excellent protective effects against infection | 0.78 µg/mL (≈ 1.81 µM) | 1.56 µg/mL (≈ 3.62 µM) | 1.56 µg/mL (≈ 3.62 µM) | 0.025 µg/mL (≈ 0.0581 µM) | 0.05 µg/mL (≈ 0.116 µM) | 0.2 µg/mL (≈ 0.465 µM) | low toxicity | 1070 mg/kg | 0.1 µg/mL (≈ 0.232 µM) | 11.1 mg/kg | 1.56 µg/mL (≈ 3.62 µM) | 0.1 µg/mL (≈ 0.232 µM) | MIC [17]: 0.006 µg/mL (≈ 0.0139 µM); MIC [18]: 1.56 µg/mL (≈ 3.62 µM); MIC [19]: 0.025 µg/mL (≈ 0.0581 µM); MIC [20]: 3.13 µg/mL (≈ 7.27 µM); MIC [21]: 0.39 µg/mL (≈ 0.906 µM); MIC (Enterobacter cloacae 963): 0.2 µg/mL (≈ 0.465 µM); MIC [22]: 0.1 µg/mL (≈ 0.232 µM)
